Source: patent US20240247021A1, “CRYSTAL FORMS OF KUDING SAPONIN A COMPOUND, PHARMACEUTICAL COMPOSITION AND USE THEREOF” (SHANGHAI KE PHARMACEUTICAL CO., LTD, priority 2021, published 2024)

assay: Conditions under which the crystal forms exist stably; type: physicochemical

With `C[C@@H]1O[C@@H](O[C@H]2[C@H](O[C@H]3CC[C@]4(C)[C@H]5C[C@H](O)C6=C7[C@]8(CC[C@](C)(OC8=O)[C@@]7(C)O)CC[C@@]6(C)[C@]5(C)CC[C@H]4C3(C)C)OC[C@H](O)[C@@H]2O[C@@H]2O[C@H](CO)[C@@H](O)[C@H](O)[C@H]2O)[C@H](O)[C@H](O)[C@H]1O` [crystal form B, Kudinoside A] as the molecule, how does the “conditions under which the crystal form exists stably” value (shortened to “conditions”) read?
Its value is “can only exist stably at high temperature”.

Which “conditions” value does the source give for `C[C@@H]1O[C@@H](O[C@H]2[C@H](O[C@H]3CC[C@]4(C)[C@H]5C[C@H](O)C6=C7[C@]8(CC[C@](C)(OC8=O)[C@@]7(C)O)CC[C@@]6(C)[C@]5(C)CC[C@H]4C3(C)C)OC[C@H](O)[C@@H]2O[C@@H]2O[C@H](CO)[C@@H](O)[C@H](O)[C@H]2O)[C@H](O)[C@H](O)[C@H]1O` [crystal form D, Kudinoside A] here?
Its value is “can only exist stably when the sample is wet”.

With `C[C@@H]1O[C@@H](O[C@H]2[C@H](O[C@H]3CC[C@]4(C)[C@H]5C[C@H](O)C6=C7[C@]8(CC[C@](C)(OC8=O)[C@@]7(C)O)CC[C@@]6(C)[C@]5(C)CC[C@H]4C3(C)C)OC[C@H](O)[C@@H]2O[C@@H]2O[C@H](CO)[C@@H](O)[C@H](O)[C@H]2O)[C@H](O)[C@H](O)[C@H]1O` [crystal form E, Kudinoside A] as the molecule, how does the “conditions” value read?
Its value is “can only exist stably when the sample is wet”.

Which “conditions” value does the source give for `C[C@@H]1O[C@@H](O[C@H]2[C@H](O[C@H]3CC[C@]4(C)[C@H]5C[C@H](O)C6=C7[C@]8(CC[C@](C)(OC8=O)[C@@]7(C)O)CC[C@@]6(C)[C@]5(C)CC[C@H]4C3(C)C)OC[C@H](O)[C@@H]2O[C@@H]2O[C@H](CO)[C@@H](O)[C@H](O)[C@H]2O)[C@H](O)[C@H](O)[C@H]1O` [crystal form G, Kudinoside A] here?
The value was “can only exist stably when the sample is wet”.

With `C[C@@H]1O[C@@H](O[C@H]2[C@H](O[C@H]3CC[C@]4(C)[C@H]5C[C@H](O)C6=C7[C@]8(CC[C@](C)(OC8=O)[C@@]7(C)O)CC[C@@]6(C)[C@]5(C)CC[C@H]4C3(C)C)OC[C@H](O)[C@@H]2O[C@@H]2O[C@H](CO)[C@@H](O)[C@H](O)[C@H]2O)[C@H](O)[C@H](O)[C@H]1O` [crystal form I2, Kudinoside A] as the molecule, how does the “conditions” value read?
The value was “cannot exist stably”.

Which “conditions” value does the source give for `C[C@@H]1O[C@@H](O[C@H]2[C@H](O[C@H]3CC[C@]4(C)[C@H]5C[C@H](O)C6=C7[C@]8(CC[C@](C)(OC8=O)[C@@]7(C)O)CC[C@@]6(C)[C@]5(C)CC[C@H]4C3(C)C)OC[C@H](O)[C@@H]2O[C@@H]2O[C@H](CO)[C@@H](O)[C@H](O)[C@H]2O)[C@H](O)[C@H](O)[C@H]1O` [crystal form L, Kudinoside A] here?
Its value is “can only exist stably at high temperature”.
